In patent publication US20220332720A1, “BICYCLIC AGONISTS OF STIMULATOR OF INTERFERON GENES STING” (The Scripps Research Institute, priority 2019, published 2022):

These molecules were tested on THP-1 Lucia ISG cells (assay: ISG-LUC activation assay (ISRE-luciferase assay)). Settings: Homo sapiens, THP1-Lucia ISG, 24 h, read-out: ISG-LUC activation assay score.
Assay type: cell-based
Description: We have established a robust platform for identifying non-nucleotide small molecule STING agonists. his has been established using a primary assay involving a human THP-1 cell line carrying an IRF-inducible reporter with 5 copies of the IFN signaling response element. Counter screens, involving alternative reporter constructs, rodent cell-based assays, as well as cGAS and STING knock-out cell lines, are used to eliminate luciferase artifacts and ensure human-rodent cross species reactivity, as well as pathway selectivity. Biochemical assays, involving cGAS enzymatic activity and STING protein binding assays, are used to identify the specific target of identified hits.
Tissue culture. Wild-type (cat. no. thpl-isg) and STING KO (cat. no. thpd-kostg) THP-1-Lucia ISG cells were purchased from Invivogen and maintained in growth media consisting of RPMI 1640, 2mM L-glutamine, […], 10% heat-inactivated fetal bovine serum (FBS), 1,000 units/ml penicillin, 1,000 μg/ml streptomycin, 0.25 μg/ml Amphotericin B, and 100 μg/ml zeocin unless otherwise stated.
ISRE-luciferase assay. THP-1 Lucia ISG cells were resuspended in low-serum growth media (2% FBS) at a density of 5×10^5 cells/ml and treated with test article or vehicle (DMSO). 50 μL of cells were seeded into each well of a 384-well white greiner plates and incubated for 24 hours. To evaluate expression of the luciferase reporter, 30 μl of Quanti-luc (Invivogen) detection reagent was added to each well and luminescence was read using an Envision plate reader (Perkin Elmer) set with an integration time of 0.1 seconds.

SMILES	EC50 [µM]
C#Cc1cc(NC(=O)c2cc(N)c3nnnn3n2)c(C(=O)O)cc1F [Compound 1, lithium 2-(8-aminotetrazolo[1,5-b]pyridazine-6-carboxamido)-4-ethynyl-5-fluorobenzoate]	< 3

Same assay, conditions: Homo sapiens, THP1-Lucia ISG; THP-1 Lucia ISG reporter cells, 24 hours; score based upon potency and efficacy relative to reference compound; read-out: ISG-LUC activation assay score

EC50 [µM]	SMILES
< 0.9	COC(=O)c1cc(Cl)c(Cl)cc1NC(=O)c1ccn2c(C#N)cnc2n1 [Compound 3, methyl 4,5-dichloro-2-(3-cyanoimidazo[1,2-a]pyrimidine-7-carboxamido)benzoate]
> 20	C#Cc1cc(NC(=O)c2ccn3c(-c4cn[nH]c4)cnc3n2)c(C(=O)O)cc1F [Compound 4, 2-(3-(1H-pyrazol-4-yl)imidazo[1,2-a]pyrimidine-7-carboxamido)-4-ethynyl-5-fluorobenzoic acid]
< 3	COc1cc(NC(=O)c2ccc3cnnn3n2)c(C(=O)O)cc1F [Compound 6]
< 3	COc1cc(NC(=O)c2ccc3nnnn3n2)c(C(=O)O)cc1F [Compound 7]
< 0.9	COC(=O)c1cc(F)c(OC)cc1NC(=O)c1ccc2cnnn2n1 [Compound 10]
> 1	C#Cc1cc(NC(=O)c2ccc3c(C#N)nnn3n2)c(C(=O)O)cc1F [Compound 13]
< 3	C#Cc1cc(NC(=O)c2cc(N)c3nnnn3n2)c(C(=O)O)cc1Cl [Compound 14]
> 1	C=Cc1ccc(C(=O)O)c(NC(=O)c2cc(N)c3nnnn3n2)c1 [Compound 16]
> 1	Nc1cc(C(=O)Nc2cc(Cl)c(Cl)cc2C(=O)O)nn2nncc12 [Compound 17]
> 1	O=C(Nc1cc(F)c(F)cc1C(=O)O)c1ccc2nnnn2n1 [Compound 22]
> 20	O=C1CCn2nc(C(=O)Nc3cc(Cl)c(Cl)cc3C(=O)O)nc2N1 [Compound 23]
> 1	C#Cc1ccc(C(=O)O)c(NC(=O)c2cc(N)c3nnnn3n2)c1 [Compound 24]
> 20	COC(=O)c1nc(Cl)c(Cl)cc1NC(=O)c1cnc2nc[nH]c2c1 [Compound 25]
> 20	C#Cc1cc(NC(=O)c2cc(N)c3[nH]c(C4CC4)nc3n2)c(C(=O)OC)cc1F [Compound 27]
> 20	Nc1cc(C(=O)Nc2cc3ccccc3cc2C(=O)O)nn2nnnc12 [Compound 29]
< 0.9	C=C(F)c1ccc(C(=O)OC)c(NC(=O)c2cc(N)n3ncnc3n2)c1 [Compound 30]
> 20	Nc1cc(C(=O)Nc2cc(C3CC3)ccc2C(=O)O)nn2nnnc12 [Compound 31]
< 3	C#Cc1cc(NC(=O)c2cc(N)c3nnnn3n2)c(C(=O)O)cc1C#N [Compound 36]
> 1	CC#Cc1cc(NC(=O)c2cc(N)c3nnnn3n2)c(C(=O)OC)cc1F [Compound 39]
< 0.9	COC(=O)c1cc(F)c(C)cc1NC(=O)c1cc(N)c2nnnn2n1 [Compound 40]
< 0.9	C#Cc1cc2nc(-c3ccc4nnnn4n3)oc(=O)c2cc1F [Compound 44]
> 1	CCOC(=O)c1nc(Cl)sc1NC(=O)c1cc(N)c2nnnn2n1 [Compound 45]
> 20	C#Cc1cc(NC(=O)c2cc(N)n3c(C#N)cnc3n2)c(C(=O)O)cc1F [Compound 46]
< 0.9	COc1cc2nc(-c3ccc4nnnn4n3)oc(=O)c2cc1F [Compound 48]
> 20	C#Cc1cc(NC(=O)c2ccn3nc(-c4cn[nH]c4)nc3n2)c(C(=O)O)cc1F [Compound 51]
> 20	C#Cc1cc(NC(=O)c2ccn3c(-c4ccncc4)nnc3n2)c(C(=O)O)cc1F [Compound 59]
> 1	C#Cc1cc(NC(=O)c2cc(N)c3nnnn3n2)c(C(=O)O[C@@H]2CSSC[C@H]2O)cc1F [Compound 60]

The remaining lines, values behind:

SMILES	EC50 [µM]
C#Cc1cc2nc(-c3cc(N)c4nnnn4n3)oc(=O)c2cc1F [Compound 2, 2(8-aminotetrazolo[1,5-b]pyridazin-6-yl)-7-ethynyl-6-fluoro-4H-benzo[d][1,3]oxazin-4-one]	< 0.9
C=Cc1cc(NC(=O)c2cc(N)c3nnnn3n2)c(C(=O)O)cc1F [Compound 5]	> 1
C#Cc1cc(NC(=O)c2cc(N)c3ncnn3n2)c(C(=O)O)cc1F [Compound 8]	> 1
C#Cc1cc(NC(=O)c2ccc3nnnn3n2)c(C(=O)O)cc1F [Compound 9]	< 3
C#Cc1cc(NC(=O)c2cc(N)c3nnnn3n2)c(C(=O)O)nc1Cl [Compound 11]	> 1
C#Cc1cc(NC(=O)c2ccc3c(C(N)=O)nnn3n2)c(C(=O)O)cc1F [Compound 12]	< 3
COC(=O)c1cc(F)c(F)cc1NC(=O)c1cccn2cnnc12 [Compound 15]	> 1
C#Cc1cc(NC(=O)c2cc(N)n3ncnc3n2)c(C(=O)O)cc1F [Compound 18]	> 1
C#Cc1cc(NC(=O)c2cc(N)nn3nnnc23)c(C(=O)OC)cc1F [Compound 19]	< 0.9
C#Cc1cc(NC(=O)c2ccn3c(-c4cn[nH]c4)cnc3n2)c(C(=O)OC)cc1F [Compound 20]	> 1
COC(=O)c1cc(F)c(F)cc1NC(=O)c1ccc2nccn2n1 [Compound 21]	> 20
C=C(F)c1cc(NC(=O)c2cc(N)c3nnnn3n2)c(C(=O)O)cc1F [Compound 26]	> 1
C#Cc1ccc(NC(=O)c2cc(N)c3nnnn3n2)c(C(=O)O)c1 [Compound 28]	> 20
C#Cc1cc(NC(=O)c2cc(N)n3ccnc3n2)c(C(=O)O)cc1F [Compound 32]	> 1
C=C(F)c1ccc(C(=O)O)c(NC(=O)c2cc(N)c3cnnn3n2)c1 [Compound 33]	> 1
C#Cc1cc(NC(=O)c2cc(N)c3nnnn3n2)c(C(=O)OC)cc1Cl [Compound 34]	< 0.9

SMILES	EC50 [µM]
C/C=C/c1cc(NC(=O)c2cc(N)c3nnnn3n2)c(C(=O)OC)cc1F [Compound 35]	< 0.9
C#Cc1cc(NC(=O)c2ccn3nc(N)nc3n2)c(C(=O)O)cc1F [Compound 37]	> 20
COC(=O)c1sc(C)cc1NC(=O)c1cc(N)c2nnnn2n1 [Compound 38]	> 1
N#Cc1cc(NC(=O)c2cc(N)c3nnnn3n2)c(C(=O)O)cc1F [Compound 41]	> 1
C#Cc1cc(NC(=O)c2ccc3nnnn3n2)c(C(=O)OC)cc1F [Compound 42]	< 0.9
Cc1cc(NC(=O)c2cc(N)c3nnnn3n2)c(C(=O)O)cc1F [Compound 43]	> 1
COc1cc(NC(=O)c2cc(N)c3nnnn3n2)c(C(=O)OC(C)C)cc1F [Compound 47]	> 1
COc1cc2nc(-c3cc(N)c4nnnn4n3)oc(=O)c2cc1F [Compound 49]	< 0.9
C#Cc1cc(NC(=O)c2cc(N)nn3nnnc23)c(C(=O)O)cc1F [Compound 50]	> 1
C#Cc1cc(NC(=O)c2ccc3c(C#N)nnn3n2)c(C(=O)OC)cc1F [Compound 52]	> 1
COc1cc(NC(=O)c2cc(N)c3nnnn3n2)c(C(=O)OC(C)OC(C)=O)cc1F (stereo not drawn) [Compound 54]	< 0.9
COc1cc(NC(=O)c2ccc3c(ncn3C)n2)c(C(=O)O)cc1F [Compound 55]	> 20
COC(=O)c1cc(F)c(OC)cc1NC(=O)c1ccc2c(ncn2C)n1 [Compound 56]	> 1
COC(=O)c1cc(F)c(OC)cc1NC(=O)c1ccn2c(N)nnc2n1 [Compound 57]	> 20
COc1cc(NC(=O)c2ccn3c(N)nnc3n2)c(C(=O)O)cc1F [Compound 58]	> 20
C#Cc1cc(NC(=O)c2ccc3c(-c4nnc[nH]4)nnn3n2)c(C(=O)O)cc1F [Compound 61]	> 1
